Source: paper PMC11767661 (Molecules, 2025)
“Also recorded” adds a separate entry of the source.

Columns and labels:
[1] = Peptide hydrolysis in Hepes buffer alone or with Cu2+/Zn2+, followed by HPLC-ESI/MS; type: physicochemical; settings: 50 mM HEPES pH 7.4, 4 °C, LC-MS relative % area
Experimental: Herein, we analyzed the hydrolytic process of Aβ peptides in 50 mM Hepes buffer at 7.4 physiological pH over two weeks at two distinct temperatures, 4 °C and 37 °C, using mass spectrometry coupled with high-performance liquid chromatography (HPLC-MS) for precise analysis. Additionally, we explored the impact of copper(II) or zinc(II) ions, each added in a 1:1 molar ratio to the peptides, on the resulting hydrolytic fragmentation patterns. It is worth noting that metal binding only occurs at the N-terminal region of Aβ peptides, specifically interacting with histidine residues. The commonly accepted peptide sequence 1–16 (^1[…]^16, Aβ16) is widely used as a model for this interaction due to its inclusion of all three histidines (His6, His13, and His14) known for their key roles in coordinating metal ions. Therefore, the initial studies were performed on this short peptide.
General. All chemicals were of reagent grade and purchased from Sigma-Aldrich. Preparative HPLC was carried out with a Shimadzu LC-20AD Prominence instrument equipped with a diode array detector. Mass spectra and LCMS/MS data were performed with an LCQ ADV MAX ion-trap mass spectrometer equipped with an ESI ion source. The instrument was run in an automated LC-MS/MS mode and using a surveyor HPLC system (Thermo Finnigan, San Jose, CA, USA) equipped with a Phenomenex Jupiter 4u Proteo column (4 μm, 150 × 2.0 mm). For the analysis of peptide fragments, Bioworks 3.1 and Xcalibur 2.0.7 SP1 software were used (Thermo Finnigan, San Jose, CA, USA).
Peptide hydrolysis in the presence of metal ions. Solutions of Aβ16 and Aβ28 (500 µM) alone or with the addition of Cu(NO3)2 (1 eqv., 500 µM) or ZnCl2 (1 eqv., 500 µM) were prepared in 50 mM Hepes buffer at pH 7.4. The solutions were then incubated at 4 °C or 37 °C (only for Aβ16) in atmospheric air and every 7 days aliquots were taken, diluted to the 25 µM final concentration with Hepes buffer, and analyzed by HPLC-ESI/MS. The solution of R1τ, Ac-R1τ, αSyn15, and Ac-αSyn15 (25 µM) fragments were incubated in 50 mM Hepes buffer at 4 °C for 14 days; at the same time, solutions also containing copper(II) or zinc(II) in a 1:1 molar ratio respect to peptide were prepared. The elution was performed by using 0.1% HCOOH in distilled water (solvent A) and 0.1% HCOOH in acetonitrile (solvent B), with a flow rate of 0.2 mL/min. Elution started with 98% solvent A for 5 min, followed by a linear gradient from 98 to 55% A in 55 min. […] For the analysis of peptide fragments, Bioworks 3.1 and Xcalibur 2.0.7 SP1 software were used (Thermo Finnigan, San Jose, CA, USA).

[2] = 50 mM Hepes buffer at pH 7.4, peptide alone; settings: 4 °C, up to 14 days
[3] = 50 mM HEPES buffer at pH 7.4 with 25 µM copper(II) nitrate; settings: 4 °C, up to 14 days
[4] = 50 mM HEPES buffer at pH 7.4 with 25 µM zinc(II) chloride; settings: 4 °C, up to 14 days
[5] = complex of copper(II) with the buffer; cited from earlier work
From the text: Shifting in fragmentation sites could be related to structural alterations induced by the N-protection. It is commonly accepted that the N-capping ...

[6] = Aβ28 500 µM + 500 µM zinc(II) chloride, 14 days
[7] = Aβ28 500 µM + 500 µM zinc(II) chloride, 21 days
[8] = Aβ28 500 µM + 500 µM copper(II) nitrate, 14 days
[9] = Aβ28 500 µM + 500 µM copper(II) nitrate, 21 days

| Molecule | Remaining amount of Aβ28 and species detected by LC-MS (Table S2) [1, 6] | Remaining amount of Aβ28 and species detected by LC-MS (Table S2) [1, 7] | Remaining amount of Aβ28 and species detected by LC-MS (Table S2) ([1]; Aβ28 500 µM alone, 14 days) | cleaved bond [2] | cleaved bond [3] | cleaved bond [4] | Remaining amount of Aβ28 and species detected by LC-MS (Table S2) [1, 8] | Remaining amount of Aβ28 and species detected by LC-MS (Table S2) [1, 9] | also measured |
| --- | --- | --- | --- | --- | --- | --- | --- | --- | --- |
| Q.KLVFFAEDVGSNK [hydrolytic fragment 16-28 of Aβ28] | 10% | 13% | 16% | – | – | – | – | – | – |
| H-MDVFMKGLSKAKEGV-NH2 | – | – | – | – | – | – | – | – | amount (%) of intact peptide after hydrolysis: > 90% |
| Ac-^1MDVFMKGLSKAKEGV^15-NH2 | – | – | – | K6-G7, 14 days; also recorded: K10-A11, 14 days; also recorded: L8-S9, 14 days | L8-S9, 14 days | L8-S9, 14 days | – | – | – |
| E.FRHDSGYEVHHQ.K [hydrolytic fragment 4-15 of Aβ28] | – | – | 2% | – | – | – | – | – | – |
| DAEFRHDSGYEVHHQKLV.F [hydrolytic fragment 1-18 of Aβ28] | 7% | 10% | 5% | – | – | – | 4% | 7% | – |
| DAEFRHDSGYEVHHQKLVF.F [hydrolytic fragment 1-19 of Aβ28] | 7% | 6% | – | – | – | – | 1% | 1% | – |
| K.LVFFAEDVGSNK [hydrolytic fragment 17-28 of Aβ28] | 5% | 4% | 22% | – | – | – | 1% | 1% | – |
| DAEFRHDSGYEVHHQKLVFFAE.D [hydrolytic fragment 1-22 of Aβ28] | 9% | 7% | – | – | – | – | 3% | 5% | – |
| O=S(=O)(O)CCN1CCN(CCO)CC1 [Hepes] | – | – | – | – | – | – | – | – | Copper(II) complex formation constant (log K) [5]: 3 |
| ^1MDVFMKGLSKAKEGV^15-NH2 | – | – | – | K6-G7, 14 days; also recorded: F4-M5, 14 days; also recorded: L8-S9, 14 days | K12-E13, 14 days; also recorded: K6-G7, 14 days; also recorded: F4-M5, 14 days; also recorded: L8-S9, 14 days | K6-G7, 14 days; also recorded: F4-M5, 14 days; also recorded: L8-S9, 14 days | – | – | – |
| Ac-^256VKSKIGSTENLKHQPGGG^273-NH2 | – | – | – | K259-I260, 14 days; also recorded: G261-S262, 14 days; also recorded: I260-G261, 14 days; also recorded: E264-N265, 14 days; also recorded: S258-K259, 14 days; also recorded: Q269-P270, 14 days; also recorded: K267-H268, 14 days; also recorded: L266-K267, 14 days | G261-S262, 14 days; also recorded: N265-L266, 14 days; also recorded: E264-N265, 14 days | G261-S262, 14 days; also recorded: N265-L266, 14 days; also recorded: E264-N265, 14 days; also recorded: K267-H268, 14 days | – | – | – |
| ^256VKSKIGSTENLKHQPGGG^273-NH2 | – | – | – | G261-S262, 14 days; also recorded: N265-L266, 14 days | N265-L266, 14 days; also recorded: S258-K259, 14 days; also recorded: Q269-P270, 14 days | K259-I260, 14 days; also recorded: I260-G261, 14 days; also recorded: E264-N265, 14 days; also recorded: K267-H268, 14 days | – | – | – |
